Target: T1, Histone-lysine N-methyltransferase EHMT2 (Homo sapiens, UniProt Q96KQ7)
T1 sequence (Q96KQ7 whole entry): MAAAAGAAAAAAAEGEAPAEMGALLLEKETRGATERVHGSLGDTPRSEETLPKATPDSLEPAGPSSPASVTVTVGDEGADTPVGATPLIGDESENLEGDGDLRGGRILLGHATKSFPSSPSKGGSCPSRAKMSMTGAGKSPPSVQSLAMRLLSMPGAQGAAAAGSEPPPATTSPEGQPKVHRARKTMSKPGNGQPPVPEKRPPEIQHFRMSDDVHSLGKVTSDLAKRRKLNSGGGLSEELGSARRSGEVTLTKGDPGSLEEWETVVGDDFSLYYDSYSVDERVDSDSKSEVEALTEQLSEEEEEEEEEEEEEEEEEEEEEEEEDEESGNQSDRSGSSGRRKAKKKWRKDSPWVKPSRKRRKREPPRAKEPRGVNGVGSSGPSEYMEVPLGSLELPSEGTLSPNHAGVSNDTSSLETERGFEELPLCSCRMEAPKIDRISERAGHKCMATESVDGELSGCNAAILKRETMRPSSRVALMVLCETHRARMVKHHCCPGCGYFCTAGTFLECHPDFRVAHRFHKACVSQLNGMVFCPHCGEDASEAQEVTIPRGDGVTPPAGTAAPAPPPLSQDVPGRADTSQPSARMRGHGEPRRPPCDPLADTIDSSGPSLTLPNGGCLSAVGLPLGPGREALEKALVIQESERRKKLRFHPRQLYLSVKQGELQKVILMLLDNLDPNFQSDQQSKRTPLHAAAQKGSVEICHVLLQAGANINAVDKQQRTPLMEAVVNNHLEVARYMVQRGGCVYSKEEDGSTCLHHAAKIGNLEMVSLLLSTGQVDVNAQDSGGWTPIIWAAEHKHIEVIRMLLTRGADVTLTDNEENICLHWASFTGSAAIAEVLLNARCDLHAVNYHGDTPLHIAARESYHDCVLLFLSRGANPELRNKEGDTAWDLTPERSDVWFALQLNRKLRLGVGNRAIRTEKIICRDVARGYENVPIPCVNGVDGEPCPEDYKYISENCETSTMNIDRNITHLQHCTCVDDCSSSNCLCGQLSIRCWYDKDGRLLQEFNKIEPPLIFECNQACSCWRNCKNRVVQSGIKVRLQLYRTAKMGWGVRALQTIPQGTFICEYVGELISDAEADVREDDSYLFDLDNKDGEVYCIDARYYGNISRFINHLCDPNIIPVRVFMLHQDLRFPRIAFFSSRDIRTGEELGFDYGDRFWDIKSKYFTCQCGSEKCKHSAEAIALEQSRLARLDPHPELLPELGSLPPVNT
Assay: Enzyme Inhibitory Efficacy Assay
Experimental: Specific experimental methods are as follows. First, the compounds of Examples 1 to 89 of 1 nM to 100 μM (4 conc.) were put into a 384 well plate (25 μL/well), and 2 μM […] enzyme (4 conc.) was put into the 384 well plate (25 μL/well). The plate was then centrifuged at 1,500 rpm for 5 seconds after sealing the plate with plate sealing foil. After incubating the EHMT2/G9a enzyme, SAM, and the compounds of Examples above at room temperature for 10 minutes, 2 μM histone H3 peptide (4 conc.) was added to the 384-well plate (25 μL/well). After sealing the plate with plate sealing foil and centrifuging at 1,500 rpm for 5 seconds, an enzymatic reaction was performed at room temperature for 1 hour. Upon completion of the enzyme reaction, 5 μL each of 200 nM Ulight -Streptavidin (4 conc.) and 8 nM Eu-antibody (4 conc.) was added to each well of the plate. The plate was sealed with plate sealing foil, centrifuged at 1,500 rpm for 5 seconds and reacted at room temperature for 1 hour. The signal values were measured with Envision (Ex 320 nm, Em 665 nm), and all background values obtained by reacting without enzyme were deleted from the measured raw data values.

IC50 | Structure (SMILES)
< 100 nM | COc1cc2c(NC3CCN(C(C)C)CC3)nc(N(C)CC(=O)OC(C)(C)C)nc2cc1C#CCCN1CCCC1 [US20230365530, Example 82]
< 100 nM | COc1cc2c(NC3CCN(C(C)C)CC3)nc(N3CC(F)(F)C3)nc2cc1C#CCCN1CCCC1 [US20230365530, Example 58]
